This passage reports pKa results from patent US6656676B2, “Silver halide color photographic material” (Konica Corporation, priority 2001, dated 2003).

A short description of this data set: pKa of the oil-soluble basic compound by alkalimetry. The format is physicochemical. Particulars: ethanol/water solution, alkalimetry at 25° C. The procedure: As is commonly known, the pKa value refers to a logarithmic acid dissociation constant (Ka), i.e., pKa=−logKa, which is also called an acid electrolytic dissociation exponent. The pKa value of the oil-soluble basic compound can be determined by the alkalimetry, in the following manner. Thus, 50 mg pf a compound sample is dissolved in 40 ml of ethanol and after adding 10 ml of distilled water thereto, 3 ml of a 0.5 mol/l hydrochloric solution and 12 ml of ethanol are further added. The thus prepared solution is subjected to an alkalimetry at a temperature of 25° C. using an alkaline solution (which is comprised of 2.0 g of sodium hydroxide, 200 ml of distilled water and 800 ml of ethanol) and an automatic titration apparatus (Auto Titrator AUT-301, available from TOA electronics, Ltd.).

In turn, `CCCCCCCCCCCCCCOc1ccc(N2CCCCC2)cc1` [Compd.-2] gave a pKa of 5. As for `CC1(C)CC(OC(=O)CCCCCCCCC(=O)OC2CC(C)(C)NC(C)(C)C2)CC(C)(C)N1` [Compd.-3], the pKa worked out at 8.7. Take `CCCCCCCCCCCCCCOC(=O)CCN1CCN(CCC(=O)OCCCCCCCCCCCCCC)CC1` [OC-4]: the pKa came out at 6.2. To `CCCCCCCCCCCCN1CCN(CCCCCCCCCCCC)CC1` [OC-6] belongs 7.2.

As a reminder, the pKa is the negative logarithm of the acid dissociation constant. Low values mean a group that gives up its proton readily, high ones a group that holds its proton tightly.
